Assay results reported in patent US20250367185A1, “TRANSLESION SYNTHESIS POLYMERASE INHIBITORS AND USES THEREOF” (THE UNIVERSITY OF VERMONT AND STATE AGRICULTURAL COLLEGE, priority 2022, published 2025).

Experiments:
[1] = system: SARS-COV-2 variants (alpha, beta, gamma, delta, BA.1, BA.2) and USA-WA1/2020; format: cell-based; conditions: 10 μM, 48 hours, A549-ACE2+ cells
[2] = system: SARS-COV-2 variants (alpha, beta, gamma, delta, BA.1, BA.2) and USA-WA1/2020; format: cell-based; conditions: 10 μM, 48 hours, A549-ACE2+ cells; remark: listed apart in the source

## CC(C)CC(=O)c1c(Nc2ccc(C(=O)O)cc2Cl)[nH]c2c(Cl)ccc([N+](=O)[O-])c2c1=O [Compound 1, 3-chloro-4-((8-chloro-3-(3-methylbutanoyl)-5-nitro-4-oxo-1,4-dihydroquinolin-2-yl)amino)benzoic acid]
[1]
  percentage of viral nucleocapsid-positive cells: reduces
[2]
  viral mRNA levels: reduces
